According to PMC11864979, “First-in-class ultralong-target-residence-time p38α inhibitors as a mitosis-targeted therapy for colorectal cancer” (Nature Cancer, 2025):
Several values for one entry are separate records, joined by “and”; a condition that tells them apart may be missing. Identical values can stand only once.

Legend:
KMP organoids = test: cell viability in KMP organoids; type: cell-based, mouse
Experimental: (§1) A total of 1,000–2,000 single cells were plated per well in white 96-well plates (Greiner) in culture medium containing 10% GFR Matrigel or Cultrex BME. The treatment with doxycycline (5 µg ml^−1), pharmacological inhibitors or corresponding volumes of DMSO was started 24 h after plating. Doxycycline was obtained from Sigma-Aldrich. […] Results were normalized to vehicle (DMSO) or to shNC. For cell-doubling assays, the cell number was quantified at the corresponding time points using Guava EasyCyte flow cytometer (Luminex, CytoSoft v5.2 software).

BAP organoids = test: cell viability in BAP organoids; type: cell-based, mouse; settings: for Cell viability (%): Fig. 2j, replicates
Experimental: as §1

PDO1 = test: cell viability in patient-derived CRC organoids PDO1; type: cell-based, human; settings: Fig. 3b, replicates
Experimental: (§2) For in vitro treatment studies, organoids were mechanically dissociated and digested using TrypLE supplemented with 100 µg ml^−1 DNaseI and 10.5 µM Y-27632 dihydrochloride (Invitrogen) at 37 °C. A total of 1,000–2,000 single cells were plated per well in white 96-well plates (Greiner) in culture medium containing 10% GFR Matrigel or Cultrex BME. The treatment with doxycycline (5 µg ml^−1), pharmacological inhibitors or corresponding volumes of DMSO was started 24 h after plating. Doxycycline was obtained from Sigma-Aldrich. […] Cell viability was measured by means of CellTiter-Glo 3D or CellTiter-Glo 2.0 reagent (Promega) according to the manufacturers’ instructions and the Infinite M Plex reader (Tecan, i-control version 3.9.1 software). Results were normalized to vehicle (DMSO) or to shNC. For cell-doubling assays, the cell number was quantified at the corresponding time points using Guava EasyCyte flow cytometer (Luminex, CytoSoft v5.2 software).

PDO2 = test: cell viability in patient-derived CRC organoids PDO2; type: cell-based, human; settings: Fig. 3c, replicates
Experimental: as §2

PDO3 = test: cell viability in patient-derived CRC organoids PDO3; type: cell-based, human; settings: Fig. 3d, replicates
Experimental: as §2

PDO4 = test: cell viability in patient-derived CRC organoids PDO4; type: cell-based, human; settings: Fig. 3e, replicates
Experimental: as §2

PDO5 = test: cell viability in patient-derived CRC organoids PDO5; type: cell-based, human; settings: Fig. 3f, replicates
Experimental: as §2

KAP^2D cells [1] = test: P-H3^S10 / α-tubulin staining, mitotic phases in KAP^2D cells; type: cell-based, mouse; settings: replicates, experiment and repetition; for Anaphase, % (of fully P-H3S10+ cells) / Metaphase, % (of fully P-H3S10+ cells) / Multipolar mitosis, % (of fully P-H3S10+ cells) / Telophase, % (of fully P-H3S10+ cells): Fig. 4f; for P-H3S10+ cells, fully positive / P-H3S10+ cells, partially positive: Fig. 4d
Experimental: Immunofluorescence staining on cells and organoids was performed on glass coverslips or tissue culture chambers (Sarstedt). Organoids were plated in medium containing 10% Matrigel or Cultrex BME. The cultures were fixed with 4% paraformaldehyde and stained with specific antibodies and DAPI (Vector Labs). All used antibodies and dilutions are listed in the Nature Portfolio Reporting Summary. For analyzing DNA synthesis, the Molecular Probes Click-iT EdU Alexa Fluor 555 kit was used 24 h after EdU incorporation with DAPI counterstaining. SA-β-Gal staining of cells was performed in cell culture dishes (cells) or tissue culture chambers (organoids) after fixation with 0.5% glutaraldehyde as described above. Human cultures were incubated with X-Gal solution at pH 6.0 for ~4 h. […] Positive cells were quantified using ImageJ version 1.53a software. The analysis of mitosis was performed with an LSM800 Airyscan (Zeiss) microscope (ZEN version 3.0 software). An Airyscan autofilter processing was applied before image analysis.

KAP^2D cells [2] = test: EdU incorporation in KAP^2D cells; type: cell-based, mouse; settings: replicates, experiment and repetition
Experimental: Immunofluorescence staining on cells and organoids was performed on glass coverslips or tissue culture chambers (Sarstedt). Organoids were plated in medium containing 10% Matrigel or Cultrex BME. The cultures were fixed with 4% paraformaldehyde and stained with specific antibodies and DAPI (Vector Labs). All used antibodies and dilutions are listed in the Nature Portfolio Reporting Summary. For analyzing DNA synthesis, the Molecular Probes Click-iT EdU Alexa Fluor 555 kit was used 24 h after EdU incorporation with DAPI counterstaining. SA-β-Gal staining of cells was performed in cell culture dishes (cells) or tissue culture chambers (organoids) after fixation with 0.5% glutaraldehyde as described above. Human cultures were incubated with X-Gal solution at pH 6.0 for ~4 h.

[3] = in vivo pharmacokinetic studies in mice (plasma, LC-MS); design: species or system mouse
Experimental: No mice were excluded during treatment studies. […] GFP imaging of tumors was performed using a Hamamatsu imaging system. For quantification of compounds in the murine plasma, 20 μl of tail-vein blood was diluted with 80 μl of heparin solution, before 200 μl of ice-cold acetonitrile with a defined internal standard was added. The samples were sonicated and centrifuged and the supernatant was subjected to liquid chromatography-mass spectrometry quantification. Full blood analyses were performed with the Sysmex KX-21N hematology analyzer.

[4] = mouse, plasma, oral administration in mice, 20 mg kg^−1
[5] = oral administration in mice, 20 mg kg^−1

## O=C(NCCN1CCOCC1)c1ccc2c(c1)C(=O)c1ccc(Nc3ccc(F)c(NC(=O)c4ccccc4)c3)cc1CC2 [Compound 1639]
KMP organoids; 4 days
  therapeutic effect in KMP organoids (in words): no therapeutic effects
KMP organoids; Fig. 2i, 0,5 µM, replicates, 5 µM
  Cell viability (%): 101.57% and 92.29%
KMP organoids; Fig. 2i, 0,25 µM, replicates
  Cell viability (%): 98.98% and 85.31% and 57.91%
KMP organoids; Fig. 2i, 1 µM, replicates
  Cell viability (%): 98.40% and 93.50%
KMP organoids; Mus musculus, Fig. 2i, 0,5 µM, replicates
  viability at 5 µM: 85.5%
KMP organoids; Mus musculus, Fig. 2i, 1 µM, replicates
  viability at 1 µM: 105%
BAP organoids; 4 days
  therapeutic effect in BAP organoids (in words): no therapeutic effects
BAP organoids; 0,5 µM, 5 µM
  Cell viability (%): 89.71% and 139.45% and 151.95%
BAP organoids; 0,25 µM
  Cell viability (%): 99.59% and 127.60% and 118.40%
BAP organoids; 1 µM
  Cell viability (%): 87.55% and 125.47% and 95.41%
PDO1; 0.5 µM
  Cell viability (%): 106.52% and 84.18% and 86.35%
PDO1; 1 µM
  Cell viability (%): 70.08% and 65.69%
PDO1; Homo sapiens, 1 µM
  viability at 1 µM: 63%
PDO2; 0,5 µM, 5 µM
  Cell viability (%): 69.57% and 95.69% and 90.88%
PDO2; 0,25 µM
  Cell viability (%): 93.94% and 86.22% and 63.24%
PDO2; 1 µM
  Cell viability (%): 53.19% and 51.96%
PDO2; Homo sapiens, 1 µM
  viability at 1 µM: 68.7%
PDO3; 0,5 µM, 5 µM
  Cell viability (%): 112.45% and 94.73% and 79.47%
PDO3; 0,25 µM, 25 µM
  Cell viability (%): 111.26% and 82.86% and 90.87%
PDO3; 1 µM
  Cell viability (%): 101.94% and 81.53% and 90.79%
PDO4; 0,5 µM, 5 µM
  Cell viability (%): 53.06% and 53.55%
PDO4; 0,25 µM, 25 µM
  Cell viability (%): 68.57% and 69.02%
PDO4; 1 µM
  Cell viability (%): 67.76% and 68.24%
PDO4; Homo sapiens, 0,5 µM
  viability at 5 µM: 50.2%
PDO4; Homo sapiens, 0,25 µM
  viability at 25 µM: 67.4%
PDO4; Homo sapiens, 1 µM
  viability at 1 µM: 66.9%
PDO5; 0,5 µM, 5 µM
  Cell viability (%): 95.85% and 89.27%
PDO5; 0,25 µM, 25 µM
  Cell viability (%): 102.83% and 96.93% and 77.02%
PDO5; 1 µM
  Cell viability (%): 104.30% and 89.98% and 81.04%
KAP^2D cells [1]
  Anaphase, % (of fully P-H3S10+ cells): 14.94% and 12.77% and 11.59% and 15.15% and 10.11% and 8.57%
  Metaphase, % (of fully P-H3S10+ cells): 17.24% and 21.28% and 8.70% and 19.70% and 24.72% and 20.00%
  Multipolar mitosis, % (of fully P-H3S10+ cells): 9.20% and 12.77% and 8.70% and 9.09% and 10.11% and 8.57%
  Telophase, % (of fully P-H3S10+ cells): 12.64% and 9.57% and 7.25% and 16.67% and 10.11% and 14.29%
  P-H3S10+ cells, fully positive: 5.80% and 5.96% and 4.15% and 4.12% and 5.10% and 3.55%
  P-H3S10+ cells, partially positive: 8.66% and 7.86% and 7.71% and 7.49% and 8.02% and 8.52%
KAP^2D cells [2]; Fig. 4j
  EdU+ cells: 87.08% and 89.84% and 80.20% and 80.71% and 77.64% and 85.43% and 87.34% and 80.43%
KAP^2D cells [2]; Fig. 5b
  EdU+ cells: 16.24% and 18.58% and 17.71% and 16.69% and 15.27% and 21.79% and 19.62% and 11.52%
[3]; 0 min of treatment, individual animals
  Plasma concentration: 0.00 µM
[3]; 45 min of treatment, individual animals
  Plasma concentration: 7.88 µM and 3.04 µM and 8.11 µM
[3]; 90 min of treatment, individual animals
  Plasma concentration: 5.28 µM and 6.24 µM
[3]; 180 min of treatment, individual animals
  Plasma concentration: 4.65 µM and 2.91 µM and 1.27 µM
[3]; 480 min of treatment, individual animals
  Plasma concentration: 0.69 µM and 0.19 µM and 0.76 µM
[3]; 1440 min of treatment, individual animals
  Plasma concentration: 0.00 µM
[3]; mouse, plasma, oral, 20 mg kg^−1, 0 min of treatment, individual animals
  concentration at 0 min: 0 nM
[3]; mouse, plasma, oral, 20 mg kg^−1, 90 min of treatment, individual animals
  concentration at 90 min: 8.68 µM
[3]; mouse, plasma, oral, 20 mg kg^−1, 1440 min of treatment, individual animals
  concentration at 1440 min: 0 nM
[3]; [4]
  AUC: 27.6 µM·h
  half-life: 2 h
[3]; [5]
  C^max: 6.7 µM
  t^max: 90 min

## O=C1c2ccc(Nc3ccc(F)cc3F)cc2CCc2ccc(OC[C@H](O)CO)cc21 [SKL, skepinone-L, reference compound]
KAP^2D cells [1]
  Anaphase, % (of fully P-H3S10+ cells): 10.84% and 8.57% and 15.15% and 12.31% and 9.21% and 11.59%
  Metaphase, % (of fully P-H3S10+ cells): 25.30% and 20.00% and 30.30% and 29.23% and 25.00% and 27.54%
  Multipolar mitosis, % (of fully P-H3S10+ cells): 3.61% and 2.86% and 6.06% and 3.08% and 3.95% and 8.70%
  Telophase, % (of fully P-H3S10+ cells): 8.43% and 9.52% and 12.12% and 10.77% and 13.16% and 15.94%
  P-H3S10+ cells, fully positive: 4.75% and 6.25% and 2.15% and 4.12% and 5.03% and 3.69%
  P-H3S10+ cells, partially positive: 6.47% and 7.85% and 5.54% and 6.84% and 8.15%
KAP^2D cells [2]; Fig. 4j
  EdU+ cells: 82.79% and 86.90% and 76.55% and 79.03% and 85.67% and 83.92% and 75.07% and 81.04%
KAP^2D cells [2]; Fig. 5b
  EdU+ cells: 71.09% and 73.09% and 75.56% and 76.21% and 80.69% and 80.64% and 67.57% and 64.28%
